Drawing on ChEMBL document CHEMBL1142878, “Synthesis and cytotoxicity evaluation of substituted pyridazino[4,5-b]phenazine-5,12-diones and tri/tetra-azabenzofluorene-5,6-diones” (Eur J Med Chem, 2007), this text covers IC50 for 18 molecules.

Assay type in all cases: functional, cell-based
The test system of one assay is A549. Description: Anticancer activity against human A549 cells after 48 hrs by SRB assay. The note with it: A549, 48 h.
The next assay concerns SK-OV-3. Nature of the assay: Anticancer activity against human SKOV3 cells after 48 hrs by SRB assay. To be noted: SK-OV-3, 48 h.
A further assay deals with SK-MEL-2. Nature of the assay: Anticancer activity against human SK-MEL-2 cells after 48 hrs by SRB assay. The note with it: SK-MEL-2, 48 h.
Another assay relates to XF498. Nature of the assay: Anticancer activity against human XF498 cells after 48 hrs by SRB assay. To be noted: XF498, 48 h.
In the next assay the test system is HCT-15. Description: Anticancer activity against human HCT15 cells after 48 hrs by SRB assay. To be noted: HCT-15, 48 h.

`O=C1c2cnncc2C(=O)c2nc3cc(C(F)(F)F)ccc3nc21`: the half-inhibitory concentration (IC50) stood at 174 nM in the assay on A549; 79 nM in the assay with SK-OV-3; 116 nM with SK-MEL-2; 116 nM in the assay with XF498; 195 nM in the assay on HCT-15.

As for `COc1cccc2c1C(=O)c1c(O)c3c(c(O)c1C2=O)C[C@@](O)(C(=O)CO)C[C@@H]3O[C@H]1C[C@H](N)[C@H](O)[C@H](C)O1` [DOXORUBICIN], the concentration for half-maximal inhibition (IC50) in the assay with A549 amounted to 118 nM; in the assay with SK-OV-3 it was 181 nM; in the assay with SK-MEL-2, 97 nM; in the assay with XF498, 112 nM; in the assay with HCT-15, 225 nM.

For the molecule `Cc1cccc2nc3c(n12)C(=O)C(=O)c1cccnc1-3`, the IC50 with A549 amounted to 1280 nM; with SK-OV-3, 1650 nM; in the assay with SK-MEL-2, 1360 nM; with XF498, 2570 nM; in the assay on HCT-15, 1450 nM.

Regarding `O=C1C(=O)c2c(nc3ccc(Cl)cn23)-c2ncccc21`, the IC50 with A549 stood at 126 nM; in the assay on SK-OV-3 it was 46 nM; with SK-MEL-2, 141 nM; in the assay on XF498 it was 124 nM; in the assay on HCT-15 it was 134 nM.

`COc1cccc2nc3c(nc12)C(=O)c1cnncc1C3=O`: the IC50 with A549 came out at 109 nM; with SK-OV-3, 39 nM; in the assay with SK-MEL-2, 29 nM; with XF498, 65 nM; with HCT-15 it was 93 nM.

Take `O=C1C(=O)c2c(nc3c(C(=O)O)cccn23)-c2ncccc21`: the IC50 is 117 nM in the assay with A549; 56 nM with SK-OV-3; 125 nM in the assay with SK-MEL-2; 95 nM in the assay on XF498; 122 nM in the assay with HCT-15.

With `Cc1cccn2c3c(nc12)-c1ncccc1C(=O)C3=O`, the IC50 turned out to be 112 nM in the assay with A549; 51 nM in the assay on SK-OV-3; 122 nM in the assay with SK-MEL-2; 86 nM in the assay with XF498; 123 nM in the assay on HCT-15.

On to `Cc1cccc2nc3c(nc12)C(=O)c1cnncc1C3=O`, for which the IC50 with A549 came to 29 nM; in the assay with SK-OV-3, 70 nM; in the assay with SK-MEL-2, 34 nM; with XF498, 21 nM; with HCT-15, 18 nM.

As to `COc1cc(OC)c2nc3c(nc2c1)C(=O)c1cnncc1C3=O`, the IC50 in the assay on A549 came out at 44 nM; in the assay on SK-OV-3 it was 70 nM; with SK-MEL-2 it was 38 nM; with XF498 it was 33 nM; with HCT-15, 26 nM.

In the case of `CCOc1cccc2nc3c(nc12)C(=O)c1cnncc1C3=O`, the IC50 in the assay with A549 stood at 53 nM; in the assay with SK-OV-3, 32 nM; in the assay with SK-MEL-2, 15 nM; with XF498, 29 nM; in the assay with HCT-15, 30 nM.

As to `Cc1cnc2nc3c(n2c1)C(=O)C(=O)c1cccnc1-3`, the IC50 with A549 was 745 nM; in the assay with SK-OV-3, 183 nM; with SK-MEL-2, 286 nM; with XF498, 382 nM; in the assay with HCT-15 it was 978 nM.

Turning to `O=C1c2cnncc2C(=O)c2nc3cc4c(cc3nc21)OCO4`, the IC50 in the assay on A549 worked out at 138 nM; in the assay on SK-OV-3 it was 41 nM; with SK-MEL-2 it was 151 nM; in the assay with XF498, 118 nM; with HCT-15, 116 nM.

Turning to `O=C1c2cnncc2C(=O)c2nc3cc(OC(F)(F)F)ccc3nc21`, the half-maximal inhibitory concentration (IC50) is 63 nM in the assay with SK-OV-3, 85 nM in the assay with SK-MEL-2, 98 nM in the assay with XF498 and 74 nM in the assay with HCT-15.

Regarding `O=C1C(=O)c2c(nc3cnccn23)-c2ncccc21`, the IC50 in the assay on A549 stood at 98 nM; with SK-OV-3, 18 nM; in the assay on SK-MEL-2 it was 114 nM; in the assay on XF498, 92 nM; in the assay with HCT-15, 123 nM.

In the case of `CCc1cccc2nc3c(nc12)C(=O)c1cnncc1C3=O`, the IC50 in the assay on A549 turned out to be 10 nM; with SK-OV-3 it was 34 nM; in the assay on SK-MEL-2 it was 19 nM; in the assay on XF498, 13 nM; in the assay with HCT-15 it was 12 nM.

On to `O=C1C(=O)c2c(nc3ncccn23)-c2ncccc21`, for which the IC50 in the assay on A549 was found to be 160 nM; in the assay with SK-OV-3, 27 nM; with SK-MEL-2, 139 nM; in the assay with XF498, 137 nM; in the assay with HCT-15, 301 nM.

Regarding `Cc1ccc2nc3c(nc2c1C)C(=O)c1cnncc1C3=O`, the IC50 amounted to 13 nM in the assay on A549; 19 nM with SK-OV-3; 12 nM in the assay on SK-MEL-2; 13 nM in the assay on XF498; 10 nM with HCT-15.

In the case of `CN(C)c1ccc2nc3c(nc2c1)C(=O)c1cnncc1C3=O`, the half-maximal inhibitory concentration (IC50) worked out at 51 nM in the assay with A549; 31 nM with SK-OV-3; 88 nM with SK-MEL-2; 70 nM with XF498; 24 nM in the assay with HCT-15.
